Test results reported in patent US9345781B2, “Targeted dendrimer-drug conjugates” (priority 2009, dated 2016).

Assays:
HepG2 cells = assay: Clonogenic survival of HepG2 cells; type: cell-based, human; conditions: 72 hour incubation, equivalent DOX concentration
Description: (§3) We compared the anticancer activity of G5-L(x)-DOX conjugates to free DOX as a function of concentration by measuring their effect on clonogenic survival of HepG2 and Hep3B hepatic cancer cells. Briefly, HepG2 and Hep3B cells were seeded at a density of 2.5×10^5 cells/T-25 flask and allowed to adhere overnight before incubating with different concentrations (1 nM-100 μM equivalent concentration of DOX) of free DOX or G5-L(x)-DOX conjugates dissolved in OPTI-MEM solution. […] After 72 hours HepG2 and Hep3B cells were washed with cold PBS, trypsinized using a 0.25% trypsin-EDTA solution and centrifuged at 1,000 rpm for 5 minutes. Cell pellets were suspended in fresh culture medium, counted, and plated in 6-well plates at a seeding density of 500-10,000 cells/well and allowed to grow undisturbed for 14 days under normal culture conditions. The formed colonies were gently washed with cold PBS, treated with 1 mL methanol/glacial acetic acid (75/25) and 0.04% w/v trypan blue for 5 minutes and counted. Plating efficiency (PE) for each cell line was calculated by dividing the number of colonies by the cell seeding density for cells incubated with fresh culture medium (negative control). […] All samples were prepared in triplicate for each seeding density and treatment condition, and results expressed as the average % SF±SEM. […]

[1] = tested on: tumors of nude tumor bearing mice; assay: Tumor growth in nude tumor bearing mice after intravenous dosing; type: in vivo; conditions: one dose/week for 3 weeks
Description: (§1) Nude tumor bearing mice were administered by intravenous injection a single dose of 6, 8, 10, or 12 mg/kg of free DOX (one dose/week for 3 weeks). The mice were sacrificed two weeks after the last administration and the tumors were harvested for analysis. Tumor size was measured and compared to the size of tumors harvested from mice administered a saline control.
The above experiment was repeated with an 8 mg/kg dose of free DOX and two additional test groups of mice: one group of mice were administered a dendrimer conjugate comprising a G5 dendrimer conjugated to DOX (G5-OXY-DOX) comprising an azo linkage comprising the structure of
(§2) Also, in this experiment, instead of being sacrificed two weeks after the last administration, the tumor volumes of the mice were measured one week after the last administration and then measured again four weeks later.

Hep3B cells = assay: Clonogenic survival of Hep3B cells; type: cell-based, human
Description: as §3

[2] = Toxicity and body weight of treated mice; type: in vivo; conditions: one dose/week for 3 weeks
Description: as §1, §2

rat cardiomyocytes = assay: LDH leakage cell viability assay in rat cardiomyocytes; type: cell-based; conditions: 100 μM eq. DOX, 8 hour incubation, versus blank medium
Description: Toxicity of G5-L4-DOX conjugates and free DOX in rat cardiomyocytes was evaluated using the lactate dehydrogenase (LDH) leakage cell viability assay. Briefly, each well was counted for total number of cardiomyocytes before an 8 hour treatment with free DOX or G5-L4-DOX (100 μM eq. DOX) conjugates dissolved in 0.5 mL HBSS. The amount of LDH released to the medium was assayed by mixing […] of the treatment solution in a 96-well plate with the enzyme substrate (1:1) included in the assay kit following the manufacturer's guidelines. […] Amount of LDH leakage for treatment solution and controls were normalized to the number of seeded cells, and all values compared to the positive control (set as 100% LDH leakage reference) to obtain the percentage of LDH leakage as a function of treatment.

SMILES: COc1cccc2c1C(=O)c1c(O)c3c(c(O)c1C2=O)C[C@@](O)(C(=O)CO)C[C@@H]3O[C@H]1C[C@H](N)[C@H](O)[C@H](C)O1.Cl (relative stereo) [Free DOX, 5,12-Naphthacenedione, 10-[(3-amino-2,3,6-trideoxy-α-L-lyxo-hexopyranosyl)oxy]-7,8,9,10-tetrahydro-6,8,11-trihydroxy-8-(hydroxylacetyl)-1-methoxy-, hydrochloride (8S-cis)]
- IC50 (HepG2 cells): 10 nM
- reduction in tumor size versus saline control ([1]; 6 mg/kg i.v.): did not cause any substantial reduction in tumor size
- tumor growth versus control mice ([1]; 8 and 10 mg/kg i.v.): inhibited tumor growth
- fold reduction in IC50 in Hep3B compared to HepG2 cells (Hep3B cells; 72 hours): 5 fold
- IC50 (Hep3B cells; clonogenic survival, 72 hour incubation, equivalent DOX concentration): 2 nM
- toxicity to mice ([2]; 10 mg/kg i.v.): slight increase in toxicity
- toxicity to mice ([2]; 12 mg/kg i.v.): too toxic to mice
- LDH leakage / cardiac toxicity (rat cardiomyocytes): nearly double the % of LDH leakage
- LDH leakage / cardiac toxicity (rat cardiomyocytes; listed as free DOX): toxic
